Data published in paper PMC11478212, “Antitumoral and Antiproliferative Potential of Synthetic Derivatives of Scorpion Peptide IsCT1 in an Oral Cavity Squamous Carcinoma Model” (Molecules, 2024).
Like-named read-outs stand apart in the source and are kept apart here. Where no end group is shown, it is not given here.

How the values were obtained:
[1] = Resistance to degradation in 25% fetal bovine serum; format: in vitro ADME; conditions: 25% fetal bovine serum in water, 37 °C, HPLC peak area vs t = 0 h, triplicate; for remaining at 0.5 h: read-out: peptide remaining intact after 30 min; for remaining at 6 h: read-out: peptide remaining intact after 6 h
Experimental: Figure 1 (a) Helical wheel projections of the IsCT1, AFPK-IsCT1, KKK-IsCT1, and IsCT-P peptides were generated using the Heliquest server (https://heliquest.ipmc.cnrs.fr/, accessed on 15 July 2024). In these projections, yellow, gray, and green circles represent hydrophobic amino acids, while blue and pink circles denote hydrophilic amino acids. (b) Resistance to degradation assays for all peptides were performed over 6 h in a solution containing 25% fetal bovine serum (FBS). These experiments were conducted in triplicate and aliquots were collected for analysis at 0, 0.5, 1, 2, 4, and 6 h of incubation. The aliquots were subsequently analyzed using high-performance liquid chromatography (HPLC) after each incubation period. The degradation kinetics of the peptides were determined by comparing the integrated peak area associated with the peptide at the start of the experiment (t = 0 h) with the integrated peak area at subsequent time points (t = 0.5, 1, 2, 4, 6 h). (c) The hemolytic activity of synthetic peptides analogous to IsCT1 was assessed on human erythrocytes within a concentration range of 0.13–128 μmol L^−1 in phosphate-buffered saline (PBS) (n = 3). A 1% solution of sodium dodecyl sulfate (SDS) in PBS served as a positive control, while PBS alone was used as a negative control. (d) A table summarizing the sequences, molecular weights, and physicochemical properties of the IsCT1, AFPK-IsCT1, and KKK-IsCT1 peptides. […]
Stability assays were conducted using GIBCO (Waltham, MA, USA) fetal bovine serum diluted to 25% in water, as described by Torres et al.. Briefly, peptide solutions were added to the serum solution and maintained at 37 °C. The experiments were carried out in triplicate and samples were taken at 0, 0.5, 1, 2, 4, and 6 h post incubation. The degradation kinetics were monitored using liquid chromatography and the percentage of remaining peptides was calculated by integrating the peak area of the peptide.

SCC-9 tumor cells = test: Cell cycle phase and DNA fragmentation analysis (flow cytometry); format: cell-based; conditions: 24 h, 100 µM, compared to the control
Experimental: (§1) Figure 3 Analysis of cell cycle phases following a 24 h treatment with synthetic analogs of IsCT1 peptides. The indicated cells were treated at the IC50 values obtained for the IsCT-P and AC-AFPK-IsCT1 peptides and at a concentration of 100 µM for the other peptides. (a) Representative histograms of cell distribution across cell cycle phases; (b) bar graph showing the correlation of the effect on cell cycle and fragmented DNA, expressed as the mean ± SD of three independent SCC-9 tumor cell experiments; (c) bar graph showing the correlation of the effect on cell cycle and fragmented DNA, expressed as the mean ± SD of three independent experiments on SCC-25 tumor cells; (d) bar graph showing the correlation of the effect on cell cycle and fragmented DNA, expressed as the mean ± SD of three independent experiments of normal FN1 cells; (e) bar graph showing the correlation of the effect on cell cycle and fragmented DNA, expressed as the mean ± SD of three independent experiments of normal J774 cells. Statistical differences were obtained using ANOVA and Tukey–Kramer multiple comparison tests. * p < 0.05, ** p < 0.01, and *** p < 0.001 denote significance. ns = not significant.
(§2) Tumor (SSC-9 and SSC-25) and normal cells (FN1 and J-774) were subjected to treatment for 24 h at the peptides’ IC50 concentrations. Treated and control cells were trypsinized and centrifuged at 1200 rpm for 5 min. The resulting pellet was resuspended in 1 mL of cold buffer, followed by the addition of 3 mL of absolute ethanol. Samples were stored at −20 °C for 24 h. The samples were then centrifuged at 1500 rpm for 10 min and resuspended in 200 μL of FACS buffer containing 0.1% Triton X-100 (Sigma-Aldrich, St. Louis, MO, USA), 50 μg/mL propidium iodide (Sigma-Aldrich), and 1 µL of RNAse (200×). This mixture was kept at room temperature and protected from light for 30 min. The samples were then transferred to cytometry tubes and analyzed using a FACScanto flow cytometer (BD) with 10,000 events, and histograms were acquired and analyzed using ModFit LT 5.0 software.

SCC-25 tumor cells [2] = test: as above; format: cell-based; conditions: 24 h, IsCT-P and AC-AFPK-IsCT1 at IC50, others 100 µM
Experimental: as §1, §2

SCC-25 tumor cells [3] = test: Mitochondrial membrane electrical potential (ΔΨm) by flow cytometry; format: cell-based; conditions: 24 h, IsCT-P and AC-AFPK-IsCT1 at IC50, others 100 µM, MitoRed, mean ± SD of three independent experiments
Experimental: Figure 4 Analysis of mitochondrial electrical potential (ΔΨm) using flow cytometry following a 24 h treatment with synthetic analogs of IsCT1 peptides. The indicated cells were treated at the IC50 values obtained for the IsCT-P and AC-AFPK-IsCT1 peptides and at a concentration of 100 µM for the other peptides. (a) Representative histograms of cell distribution according to ΔΨm; (b) bar graph showing ΔΨm expressed as the mean ± SD of three independent experiments of SCC-9 tumor cells; (c) bar graph showing ΔΨm expressed as the mean ± SD of three independent experiments of SCC-25 tumor cells; (d) bar graph showing ΔΨm expressed as the mean ± SD of three independent experiments of normal FN1 cells; (e) bar graph showing ΔΨm expressed as the mean ± SD of three independent experiments of normal J774 cells. Statistical differences were obtained using ANOVA and Tukey–Kramer multiple comparison tests. * p < 0.05, ** p < 0.01, and *** p < 0.001 denote significance. ns = not significant.
Tumor (SSC-9 and SSC-25) and normal cells (FN1 and J-774) were subjected to treatment for a period of 24 h at the peptides’ IC50 concentrations. After treatment, the cells were trypsinized, centrifuged at 1200 rpm for 5 min, the supernatant was discarded, and the cells were resuspended in complete medium containing MitoRed™ (Sigma-Aldrich, USA) (200 nM/L). Subsequently, the samples were incubated in an incubator at 37 °C with 5% CO2 for 30 min. The tubes were then centrifuged, the supernatant was discarded, and the pellet was resuspended in 200 μL of FACS buffer. Readings were performed using a FACScanto flow cytometer (BD) with 10,000 events, and histograms were acquired and analyzed using FCS Express software 2.0.

SCC-9 cells = test: MTT cell viability; format: cell-based; conditions: treatment 24 and 48 h (time of IC50 not given), absorbance 540 nm, N/IC50 = no IC50 for the tested concentrations, no toxicity
Experimental: (§3) Cell survival was assessed using an MTT assay. Tumor (SSC-9 and SSC-25) and normal cells (FN1 and J-774) were incubated in 96-well plates at a density of 10^5 cells/mL for 24 h. Subsequently, treatments were administered as described in Table 1 for 24 and 48 h. After the treatment period, the supernatant was aspirated and 100 μL of MTT at a concentration of 5 mg/mL (Calbiochem—Darmstadt, Germany) was added to the plate and incubated for 3 h at 37 °C with 5% CO2. Afterward, the content was removed and 200 μL of methanol was added to dissolve the formazan crystals. Absorbance was then measured at a wavelength of 540 nm using a microplate reader. The hemolysis assay was performed as previously reported.

SCC-25 cells = test: MTT cell viability; format: cell-based; conditions: treatment 24 and 48 h (time of IC50 not given), absorbance 540 nm, N/IC50 = no IC50 for the tested concentrations, no toxicity
Experimental: as §3

FN1 cells = test: MTT cell viability; format: cell-based; conditions: FN1 normal human fibroblasts, treatment 24 and 48 h (time of IC50 not given), absorbance 540 nm, N/IC50 = no IC50 for the tested concentrations, no toxicity
Experimental: as §3

J774 cells = test: MTT cell viability; format: cell-based; conditions: J774 normal macrophages, treatment 24 and 48 h (time of IC50 not given), absorbance 540 nm, N/IC50 = no IC50 for the tested concentrations, no toxicity
Experimental: as §3

Substance	remaining at 0.5 h ([1]; 30 min)	remaining at 6 h [1]	increase in fragmented DNA (SCC-9 tumor cells)	fragmented DNA (SCC-25 tumor cells [2])	decrease in ΔΨm (SCC-25 tumor cells [3])	IC50 (SCC-9 cells)	IC50 (SCC-25 cells)	IC50 (FN1 cells)	IC50 (J774 cells)	metabolised at 0.5 h ([1]; 30 min)	time to complete degradation [1]	IC50 (FN1 cells; read-out: IC50)
ALGKFWPKIKSLF-NH2 [AFPK-IsCT1]	50%	8%	13.6%	No significant DNA fragmentation	40.5 ± 0.4%	N/IC50	N/IC50	N/IC50	N/IC50	–	–	–
H-ILKKIWKGKKSLF-NH2 [KKK-IsCT1]	50%	8%	–	19%	–	N/IC50	N/IC50	N/IC50	N/IC50	–	–	–
Ac-ILKKIWKGKKSLF-NH2 [AC-KKK-IsCT1]	–	–	–	12.4%	–	N/IC50	N/IC50	–	N/IC50	50%	≤ 4 h	100 µM
